Experimental data from the NIST ThermoML archive (doi:10.1016/j.jct.2004.09.021).

Legend:
[1] = refractive index (Na D-line) (dimensionless); xn = mol fraction of the nth substance listed; conditions: 101 kPa, Liquid
[2] = xn = mol fraction of the nth substance listed; conditions: 101 kPa, Liquid

COc1ccccc1 [anisole] + CCCCCCC
Conditions	mass density, 293.15 K [kg/m3]	mass density, 298.15 K [kg/m3]	mass density, 303.15 K [kg/m3]	refractive index, 293.15 K	refractive index, 298.15 K	refractive index, 303.15 K	viscosity, 293.15 K [mPa·s]	viscosity, 298.15 K [mPa·s]	viscosity, 303.15 K [mPa·s]
[1], x1 = 0.1007	–	–	–	1.3975	1.3954	1.3924	–	–	–
[1], x1 = 0.21	–	–	–	1.4087	1.4064	1.4036	–	–	–
[1], x1 = 0.31	–	–	–	1.4189	1.4167	1.414	–	–	–
[1], x1 = 0.405	–	–	–	1.4294	1.4272	1.4248	–	–	–
[1], x1 = 0.4985	–	–	–	1.4407	1.4385	1.4362	–	–	–
[1], x1 = 0.583	–	–	–	1.4516	1.4495	1.4474	–	–	–
[1], x1 = 0.6989	–	–	–	1.4683	1.466	1.464	–	–	–
[1], x1 = 0.792	–	–	–	1.4826	1.4802	1.4782	–	–	–
[1], x1 = 0.8941	–	–	–	1.499	1.4966	1.4947	–	–	–
[1], x1 = 1	–	–	–	1.5161	1.5141	1.5129	–	–	–
[2], x1 = 0.1002	707.25	702.96	698.59	–	–	–	0.4315	0.4121	0.3918
[2], x1 = 0.2002	731.96	727.61	723.18	–	–	–	0.4541	0.434	0.4135
[2], x1 = 0.2987	757.78	753.37	748.88	–	–	–	0.4775	0.4581	0.4356
[2], x1 = 0.3994	785.83	781.36	776.8	–	–	–	0.5184	0.4896	0.4639
[2], x1 = 0.4996	815.43	810.9	806.29	–	–	–	0.5675	0.5347	0.5064
[2], x1 = 0.5958	845.62	841.04	836.39	–	–	–	0.6285	0.5911	0.5603
[2], x1 = 0.6993	880.28	875.65	870.94	–	–	–	0.7129	0.6692	0.6322
[2], x1 = 0.7981	915.67	911.07	906.4	–	–	–	0.8105	0.7613	0.7161
[2], x1 = 0.8991	953.76	949.15	944.46	–	–	–	0.9337	0.8767	0.8197
[2], x1 = 1	993.81	989.15	984.42	–	–	–	1.085	1.017	0.9285

COc1ccccc1 [anisole] + CCCCCCCC
Conditions	mass density, 293.15 K [kg/m3]	mass density, 298.15 K [kg/m3]	mass density, 303.15 K [kg/m3]	refractive index, 293.15 K	refractive index, 298.15 K	refractive index, 303.15 K	viscosity, 293.15 K [mPa·s]	viscosity, 298.15 K [mPa·s]	viscosity, 303.15 K [mPa·s]
[1], x1 = 0.106	–	–	–	1.405	1.4029	1.4004	–	–	–
[1], x1 = 0.231	–	–	–	1.4158	1.4136	1.4114	–	–	–
[1], x1 = 0.307	–	–	–	1.423	1.4208	1.4187	–	–	–
[1], x1 = 0.3991	–	–	–	1.4324	1.4303	1.4283	–	–	–
[1], x1 = 0.503	–	–	–	1.444	1.4419	1.44	–	–	–
[1], x1 = 0.6	–	–	–	1.4562	1.454	1.4522	–	–	–
[1], x1 = 0.69	–	–	–	1.4683	1.4661	1.4643	–	–	–
[1], x1 = 0.796	–	–	–	1.4838	1.4815	1.4797	–	–	–
[1], x1 = 0.8822	–	–	–	1.4973	1.495	1.4933	–	–	–
[1], x1 = 1	–	–	–	1.5161	1.5141	1.5129	–	–	–
[2], x1 = 0.1031	722.82	718.75	714.63	–	–	–	0.5523	0.5195	0.4917
[2], x1 = 0.2253	749.02	744.78	740.6	–	–	–	0.568	0.5349	0.5042
[2], x1 = 0.3001	766.32	762.01	757.77	–	–	–	0.5825	0.5446	0.5166
[2], x1 = 0.4	791.02	786.68	782.37	–	–	–	0.6136	0.5719	0.5434
[2], x1 = 0.5092	820.49	816.09	811.7	–	–	–	0.6541	0.6157	0.5779
[2], x1 = 0.5998	847.08	842.65	838.17	–	–	–	0.7026	0.6542	0.6162
[2], x1 = 0.6977	878.22	873.72	869.19	–	–	–	0.7639	0.7153	0.6729
[2], x1 = 0.7998	913.74	909.15	904.54	–	–	–	0.8456	0.7845	0.7453
[2], x1 = 0.8975	950.96	946.32	941.63	–	–	–	0.9497	0.8917	0.8289
[2], x1 = 1	993.81	989.15	984.42	–	–	–	1.085	1.017	0.9285
